In patent US12479818B2, “Treatment of fibrosis with IRE1 small molecule inhibitors” (Cornell University, priority 2019, dated 2025):

target: IRE1a (Homo sapiens, UniProt O75460); assay: IRE1a Endoribonuclease Nanoluciferase Assay (XBP1 luciferase reporter in 293T cells); assay type: cell-based; parameters: endogenous in cells; host or cells: 293T; conditions: XBP1 nanoluciferase reporter in 293T cells, ER stressor; tested as the salt named
Procedure: Compounds disclosed herein were assessed for disruption of IRE1 signaling using a IRE1a Endoribonuclease Nanoluciferase Assay. […] About 24 hours later, the cells were transfected with Effectene. In a 15 mL tube, the following was added: 2 ug XBP1 luciferase reporter plasmid (PGK-Luc2-P2A-XBP1u-Nanoluciferase-PEST); 300 ul EC buffer; and 16 ul Enhancer, followed by incubation at room temp for 5 minutes. […] 2.6 mL cDMEM media was added. Old media was aspirated from the cells, followed by addition of 7 mL fresh media. Full transfection mixture was added dropwise to cells. Cells were incubated for 6 hours, followed by trypsinization, centrifugation and resuspension in 11 mL fresh cDMEM media. 100 μL of cells were plated per a well in a 96 well plate. A day later, ER stressors of choice +/− inhibitors were added. To harvest, media was aspirated from cells completely, then 50 uL 1× passive lysis buffer (Promega: E1941) was added per well and put on shaker (300 rpm) for 30 minutes at room temperature. […] 15 uL OneGlo (nanoluciferase kit, Promega N1630) was added. Plates were spun down, placed on shaker (300 rpm) for 10 minutes. Plates were read on luminometer, 1000 ms integration time per well. 15 uL Stop and Glo (nanoluciferase kit) was added. Plates were spun down, placed on shaker (300 rpm) for 10 minutes. Plates were read on luminometer, 1000 ms second integration time per well.

IRE1a, sequence (O75460 19-977): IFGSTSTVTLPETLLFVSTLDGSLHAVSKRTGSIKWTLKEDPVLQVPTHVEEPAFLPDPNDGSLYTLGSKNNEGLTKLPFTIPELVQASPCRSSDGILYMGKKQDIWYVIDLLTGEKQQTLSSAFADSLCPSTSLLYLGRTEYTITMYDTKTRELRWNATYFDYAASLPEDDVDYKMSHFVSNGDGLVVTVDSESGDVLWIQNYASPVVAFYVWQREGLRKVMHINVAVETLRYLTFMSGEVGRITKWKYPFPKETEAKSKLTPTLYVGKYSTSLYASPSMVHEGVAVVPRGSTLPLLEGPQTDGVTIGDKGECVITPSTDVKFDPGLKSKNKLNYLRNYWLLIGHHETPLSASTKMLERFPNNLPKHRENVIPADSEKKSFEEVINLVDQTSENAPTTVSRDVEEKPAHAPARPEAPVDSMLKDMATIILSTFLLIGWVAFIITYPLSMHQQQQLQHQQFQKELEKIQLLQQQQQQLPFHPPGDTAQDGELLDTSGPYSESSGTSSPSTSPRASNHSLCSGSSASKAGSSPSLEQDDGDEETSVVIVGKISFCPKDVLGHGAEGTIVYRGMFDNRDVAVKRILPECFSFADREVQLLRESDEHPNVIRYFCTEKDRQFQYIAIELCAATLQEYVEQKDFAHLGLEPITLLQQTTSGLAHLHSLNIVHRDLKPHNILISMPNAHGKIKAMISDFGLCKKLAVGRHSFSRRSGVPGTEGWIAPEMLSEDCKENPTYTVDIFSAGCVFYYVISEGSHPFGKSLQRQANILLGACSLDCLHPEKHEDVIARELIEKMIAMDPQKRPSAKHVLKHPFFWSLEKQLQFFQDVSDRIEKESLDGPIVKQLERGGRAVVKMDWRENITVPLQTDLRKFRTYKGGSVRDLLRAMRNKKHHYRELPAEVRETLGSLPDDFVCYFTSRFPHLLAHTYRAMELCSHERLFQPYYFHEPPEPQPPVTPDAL

CCc1cc(-c2cnc(NS(=O)(=O)c3ccccc3Cl)nc2C)cc2cnc(N[C@H]3CC[C@H](N)CC3)nc12 [Compound 23, N-(5-(2-(((1r,4r)-, 4-aminocyelohexyl)amino)-8-ethylquinazolin-6-yl)-4-methylpyrimidin-2-yl)-2-ehlorobenzene-sulfonamide] and CCc1cc(-c2cnc(NS(=O)(=O)c3ccccc3Cl)nc2OC)cc2cnc(N[C@H]3CC[C@H](N)CC3)nc12 [Compound 46, N-(5-(2-(((1r,4r)-4-aminocyclohexyl)amino)-8-ethylquinazolin-6-yl)-4-methoxypyrimidin-2-yl)-2-chlorobenzene-sulfonamide] cannot be ordered by EC50: under 5 nM for the first, under 5 nM for the second.

CCc1cc(-c2ccc(NS(=O)(=O)c3ccccc3Cl)c(F)c2)cc2cnc(N[C@H]3CC[C@H](N)CC3)nc12 [Compound 24, N-(4-(2-(((1r,4r)-4-aminocyclohexyl)amino)-8-ethylquinazolin-6-yl)-2-fluorophenyl)-2-chlorobenzene-sulfonamide] and CCc1cc(-c2ccc(NS(=O)(=O)c3ccccc3Cl)c(F)c2)cc2cnc(N[C@H]3CC[C@H](NC)CC3)nc12 [Compound 60, 2-chloro-N-(4-(8-ethyl-2-(((1r,4)-4-(methylamino)cyclohexyl)amino)quinazolin-6-yl)-2-fluorophenyl) benzene-sulfonamide] cannot be ordered by EC50: under 5 nM for the first, under 5 nM for the second.

First: N[C@H]1CC[C@H](Nc2ncc3cc(-c4ccc(NS(=O)(=O)c5ccccc5Cl)cc4)ccc3n2)CC1 [Compound 26, N-(4-(2-(((lr,4r) 4-aminocyclohexyl)amino)quinazolin-6-yl)phenyl)-2-chlorobenzene-sulfonamide]
Second: N[C@H]1CC[C@H](Nc2ncc3cc(-c4ccc(NS(=O)(=O)c5ccccc5Cl)cc4F)ccc3n2)CC1 [Compound 48, N-(4-(2-(((1r,4r)-4-aminocyclohexyl)amino)quinazolin-6-yl)-3-fluorophenyl)-2-chlorobenzene-sulfonamide]
The EC50 of the first is lower: under 5 nM for the first, 5 to 50 nM for the second. The first is the more potent here.

CCc1cc(-c2ccc(NS(=O)(=O)c3ccccc3Cl)nc2)cc2cnc(N[C@H]3CC[C@H](N)CC3)nc12 [Compound 27, N-(5-(2-(((lr,4r)-4-aminocyclohexyl)amino)-8-ethylquinazolin-6-yl)pyridin-2-yl)-2-chlorobenzene-sulfonamide] and CCc1cc(-c2ccc(NS(=O)(=O)c3ccccc3Cl)cn2)cc2cnc(N[C@H]3CC[C@H](N)CC3)nc12 [Compound 28, N-(6-(2-(((1r,4r)-4-aminocyclohexyl)amino)-8-ethylquinazolin-6-yl)pyridin-3-yl)-2-chlorobenzene-sulfonamide] cannot be ordered by EC50: under 5 nM for the first, under 5 nM for the second.

First: CCc1cc(-c2cc(NS(=O)(=O)c3ccccc3Cl)n[nH]2)cc2cnc(N[C@H]3CC[C@H](N)CC3)nc12 [Compound 29, N-(5-(2-(((lr,4r)-4-aminocyclohexyl)amino)-8-ethylquinazolin-6-yl)-1H-pyrazol-3-yl)-2-chlorobenzene-sulfonamide]
Second: CCc1cc(-c2cc(NS(=O)(=O)c3ccccc3Cl)no2)cc2cnc(N[C@H]3CC[C@H](N)CC3)nc12 [Compound 44, N-(5-(2-(((1r,4r)-4-aminocyclohexyl)amino)-8-ethylquinazolin 6-yl)isoxazol-3-yl)-2-chlorobenzene-sulfonamide]
The EC50 of the first is higher: 100 to 10000 nM for the first, under 5 nM for the second. The second is the more potent here.

CCc1cc(-c2ccc(NS(=O)(=O)c3ccccc3Cl)nn2)cc2cnc(N[C@H]3CC[C@H](N)CC3)nc12 [Compound 32] and CCc1cc(-c2ccc(NS(=O)(=O)c3ccccc3Cl)nn2)cc2cnc(N[C@H]3CC[C@H](NC)CC3)nc12 [Compound 61, 2-chloro-N-(6-(8-ethyl-2-(((lr,4r)-4-(methylamino)cyclohexyl)amino)quinazolin-6-yl)pyridazin-3-yl)benzene-sulfonamide] cannot be ordered by EC50: under 5 nM for the first, under 5 nM for the second.

CCc1cc(-c2ncc(NS(=O)(=O)c3ccccc3Cl)cn2)cc2cnc(N[C@H]3CC[C@H](N)CC3)nc12 [Compound 33, N-(2-(2-(((1r,4r)-4-aminocyclohexyl)amino)-8-ethylquinazolin-6-yl)pyrimidin-5-yl)-2-chlorobenzene-sulfonamide] and CCc1cc(-c2ncc(NS(=O)(=O)c3ccccc3Cl)cc2F)cc2cnc(N[C@H]3CC[C@H](N)CC3)nc12 [Compound 52, N-(6-(2-(((1r,4r)-4-aminocyclohexyl)amino)-8-ethylquinazolin-6-yl)-5-fluoropyridin-3-yl)-2-chlorobenzene-sulfonamide] cannot be ordered by EC50: under 5 nM for the first, under 5 nM for the second.

First: CCc1cc(NS(=O)(=O)c2ccccc2Cl)ccc1-c1cc(CC)c2nc(N[C@H]3CC[C@H](N)CC3)ncc2c1 [Compound 34, N-(4-(2-(((1r,4r)-4-aminocyclohexyl)amino)-8-ethylquinazolin-6-yl)-3-ethylphenyl)-2-chlorobenzene-sulfonamide]
Second: CCc1cc(-c2ccc(NS(=O)(=O)c3ccccc3Cl)cc2F)cc2cnc(N[C@H]3CC[C@H](N)CC3)nc12 [Compound 35, N-(4-(2-(((lr,4r)-4-aminocyclohexyl)amino)-8-ethylquinazolin-6-yl)-3-f1uorophenyl)-2-chlorobenzene-sulfonamide]
The EC50 of the first is higher: 5 to 50 nM for the first, under 5 nM for the second. The second is the more potent here.

CCCc1cc(-c2cc(NS(=O)(=O)c3ccccc3Cl)nn2C)cc2cnc(N[C@H]3CC[C@H](N)CC3)nc12 [Compound 47, N-(5-(2-(((1r,4r)-4-aminocyclohexyl)amino)-8-propylquinazolin-6-yl)-1-methyl-1H-pyrazol-3-yl)-2-chlorobenzene-sulfonamide] and CCc1cc(-c2nnc(NS(=O)(=O)c3ccccc3Cl)cc2C)cc2cnc(N[C@H]3CC[C@H](N)CC3)nc12 [Compound 67, N-(6-(2-(((lr,4r)-4-aminocyclohexyl)amino)-8-ethylquinazolin-6-yl)-5-methylpyridazin-3-yl)-2-chlorobenzene-sulfonamide] fall in the same range of EC50: 5 to 50 nM for the first, 5 to 50 nM for the second.

First: N[C@H]1CC[C@H](Nc2ncc3cc(-c4ncc(NS(=O)(=O)c5ccccc5Cl)cc4F)ccc3n2)CC1 [Compound 51, N-(6-(2-(((1r,4r)-4-aminocyclohexyl)amino)quinazolin-6-yl)-5-fluoropyridin-3-yl)-2-chlorobenzene-sulfonamide]
Second: N[C@H]1CC[C@H](Nc2ncc3cc(-c4cnc(NS(=O)(=O)c5ccccc5Cl)c(F)c4)ccc3n2)CC1 [Compound 54, N-(5-(2-(((1r,4r)-4-aminocyclohexyl)amino)quinazolin-6-yl)-3-fluoropyridin-2-yl)-2-chlorobenzene-sulfonamide]
The EC50 of the first is higher: 50 to 100 nM for the first, 5 to 50 nM for the second.

N[C@H]1CC[C@H](Nc2ncc3cc(-c4cc(F)c(NS(=O)(=O)c5ccccc5Cl)cc4F)ccc3n2)CC1 [Compound 53, N-(4-(2-(((1r,4r)-4-aminocyclohexyl)amino)quinazolin-6-yl)-2,5-difluorophenyl)-2-chlorobenzene-sulfonamide] and N[C@H]1CC[C@H](Nc2ncc3cc(-c4ccc(NS(=O)(=O)c5ccccc5Cl)c(F)c4F)ccc3n2)CC1 [Compound 56, N-(4-(2-(((1r,4r)-4-aminocyclohexyl)amino)quinazolin-6-yl)-2,3-difluorophenyl)-2-chlorobenzene-sulfonamide] cannot be ordered by EC50: under 5 nM for the first, under 5 nM for the second.

First: CCc1cc(-c2cnc(NS(=O)(=O)c3ccccc3Cl)c(F)c2)cc2cnc(N[C@H]3CC[C@H](N)CC3)nc12 [Compound 55, N-(5-(2-(((1r,4r)-4-aminocyclohexyl)amino)-8-ethylquinazolin-6-yl)-3-fluoropyridin-2-yl)-2-chlorobenzene-sulfonamide]
Second: CCc1cc(-c2cc(OC)c(NS(=O)(=O)c3ccccc3Cl)nn2)cc2cnc(N[C@H]3CC[C@H](N)CC3)nc12 [Compound 66, N-(6-(2-(((1r,4r)-4-aminocyclohexyl)amino)-8-ethylquinazolin-6-yl)-4-methoxypyridazin-3-yl)-2-chlorobenzene-sulfonamide]
The EC50 of the first is lower: under 5 nM for the first, 50 to 100 nM for the second. The first is the more potent here.

First: N[C@H]1CC[C@H](Nc2cc3ccc(-c4ccc(NS(=O)(=O)c5ccccc5Cl)c(F)c4)cc3cn2)CC1 [Compound 57, N-(4-(3-(((1r,4r)-4-aminocyclohexyl)amino)isoquinolin-7-yl)-2-fluorophenyl)-2-chlorobenzene-sulfonamide]
Second: N[C@H]1CC[C@H](Nc2ncc3cc(-c4c(F)cc(NS(=O)(=O)c5ccccc5Cl)cc4F)ccc3n2)CC1 [Compound 62, N-(4-(2-(((1r,4r)-4-aminocyclohexyl)amino)quinazolin-6-yl)-3,5-difluorophenyl)-2-chlorobenzene-sulfonamide]
The EC50 of the first is lower: under 5 nM for the first, 5 to 50 nM for the second.

First: CCc1cc(-c2ccc(NS(=O)(=O)c3ccccc3Cl)c(F)c2)cc2cnc(N[C@H]3CC[C@H](NC(C)=O)CC3)nc12 [Compound 59, N-((1r,4)-4-((6-(4-((2-chlorophenyl)sulfonamido)-3-fluorophenyl)-8-ethylquinazolin-2-yl)amino)cyclohexyl) acetamide]
Second: CCc1cc(-c2ccc(NS(=O)(=O)c3ccccc3Cl)nn2)cc2cnc(N[C@H]3CC[C@H](N(C)C)CC3)nc12 [Compound 64, 2-chloro-N-(6-(2-(((1r,4r)-4-(dimethylamino)cyclohexyl)amino)-8-ethylquinazolin-6-yl)pyridazin-3-yl)benzene-sulfonamide]
The EC50 of the first is higher: 50 to 100 nM for the first, under 5 nM for the second.

Work on CCc1cc(-c2nnc(NS(=O)(=O)c3ccccc3Cl)cc2OC)cc2cnc(N[C@H]3CC[C@H](N)CC3)nc12 [Compound 65, N-(6--(2-(((lr,4r)-4-aminocyclohexyl)amino)-8-ethylquinazolin-6-yl)-5-methoxypyridazin-3-yl)-2-chlorobenzene-sulfonamide] yielded an EC50 of 5 to 50 nM.
